Measurements from US20050130252A1, “Stabilized susceptibility tests of aerobic pathogens” (Wyeth Holdings Corporation, priority 2003, published 2005).

Test system: E. coli ATCC 25922
Test: Time-kill assay, fresh vs aged Mueller-Hinton broth
Assay type: cell-based, Escherichia coli
Conditions: FIG. 1
Protocol: Time-kill assays were performed by the broth macrodilution method in accordance with the NCCLS guidelines (NCCLS. 1999. Methods for Determining Bactericidal Activity of Antimicrobial Agents; Approved Guidelines: M26-A, vol. 19. National Committee for Clinical Laboratory Standards, Wayne, Pa.). A starting inoculum of approximately 10^6 CFU/ml and a final concentration of the antibiotic equal to four times the MIC were employed for these assays. Flasks containing 50 ml of MHB II with the appropriate antimicrobial agent were inoculated with […] of the test organism in logarithmic growth phase. Test flasks (250 ml) were incubated with shaking (150 RPM) in a 35° C. water bath. Aliquots were removed for the determination of viable counts at 0, 2, 4, 6 and 24 hours. Serial dilutions were prepared in sterile 0.85% sodium chloride solution. The diluted samples (0.05 ml) were plated onto appropriate agar plates trypticase soy agar (TSA) with a spiral plater (Don Whitley Scientific LTD). The plates were incubated at 35° C. in ambient air for 18-22 hours and the number of colonies were determined on the ProtoCOL plate reader plater (Don Whitley Scientific LTD). Killing curves were constructed by plotting the log10 CFU/ml versus time over 24 hours and the change in bacterial concentration was determined. Data is shown graphically in FIG. 1. Presented in Table 3 are the minimal inhibitory concentration results of the effect of media age, fresh vs. aged and Oxyrase® on the activity of tigecycline.
To further establish this effect, a time kill experiment was performed with E. coli ATCC 25922 in fresh and aged media at […] and 1 μg/ml of tigecycline, which represents 1×, and 4×MIC of this organism determined in aged media. […]

## CN(C)c1cc(NC(=O)CNC(C)(C)C)c(O)c2c1C[C@H]1C[C@H]3[C@H](N(C)C)C(O)=C(C(N)=O)C(=O)[C@@]3(O)C(O)=C1C2=O [Tigecycline, tigecycline]
0.12 μg/ml of tigecycline, aged media
  Time kill, growth of E. coli ATCC25922 in aged media: regrowth of the strain after 6 h exposure
0.12 and 1 μg/ml of tigecycline, fresh media
  Time kill, growth of E. coli ATCC25922 in fresh media: suppressed the growth
E. coli ATCC 25922
  Difference in viable growth, fresh vs aged media (time kill kinetics): > 3 log10
